How the values were obtained:
Set-up in all cases: key: Active: Compounds with an IC50 value less than 30 μM were deemed to be active.; Not Active: Compounds with an IC50 value less than 30 μM were deemed to be active
[1] = target: T1, Brd4 bromodomain 1 (BRD4(1)) (Homo sapiens, UniProt O60885); test: Inhibition of tetra-acetylated histone H4 binding to Brd4 bromodomain 1 (TR-FRET); conditions: tetra-acetylated histone H4 peptide, active = IC50 <30 μM
T1 construct: Illustrative results with the first bromodomain of Brd4; made in house; host or cells: E. coli BL21 (DE3)
How it was run: (§1)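 IC50 values come from dose-response curves of the 665 nm to 620 nm TR-FRET signal decrease, measured after 2 h at room temperature. Reactions contained 200 nM E. coli-expressed His-tagged bromodomain, 25-50 nM biotinylated tetra-acetylated H4 peptide, Eu-streptavidin plus XL665 anti-His antibody, with 30 mM HEPES pH 7.4, 320 mM KF and 0.2% DMSO.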

c-myc = test: Inhibition of c-myc expression in MV4-11 cells (mRNA, real-time PCR); assay type: cell-based; conditions: Human AML MV4-11 cells, 3 h incubation
Protocol: MV4-11 cells (2.5×10^4 cells) were plated in 96 well U-bottom plates with test compound or DMSO (0.1%), and incubated for 3 h at 37° C. Cells were then harvested by centrifugation, lysed, and mRNA was isolated using the mRNA catcher plus kit (Invitrogen). Reverse transcription of the mRNA and duplex amplification of the c-myc and cyclophilin cDNAs was performed using the RNA Ultrasense kit (Invitrogen) and a ViiA7 real-time PCR machine (Applied Biosystems). IC50 values were determined from a dose response curve.

[2] = system: human AML MV-4-11 (CRL-9591) cells; test: Inhibition of cell proliferation in MV4-11 cells; assay type: cell-based; conditions: human AML MV-4-11 cells, 72 h; active = IC50 <30 μM
Protocol: MV4-11 cells: 96-well plates were seeded with 5×10^4 cells per well of exponentially growing human AML MV-4-11 (CRL-9591) cells and immediately treated with two-fold dilutions of test compounds, ranging from 30 μM to 0.2 μM. Triplicate wells were used for each concentration, as well as a media only and three DMSO control wells. The cells and compounds were incubated at 37° C., 5% CO2 for 72 h before adding 20 μL of the CellTiter Aqueous One Solution (Promega) to each well and incubating at 37° C., 5% CO2 for an additional 3-4 h. The absorbance was taken at 490 nm in a spectrophotometer and the percentage of proliferation relative to DMSO-treated cells was calculated after correction from the blank well. IC50 were calculated using the GraphPad Prism software.

hIL-6 mRNA = test: Inhibition of hIL-6 mRNA transcription in U937 cells; assay type: cell-based, human; conditions: LPS stimulation, active = IC50 <30 μM
Protocol: In this example, hIL-6 mRNA in tissue culture cells was quantitated to measure the transcriptional inhibition of hIL-6 when treated with a compound of the present disclosure.
A human leukemic monocyte lymphoma cell line (U937) was plated (3.2×10^4 cells per well) in a 96-well plate in […] RPMI-1640 containing 10% FBS and penicillin/streptomycin, and differentiated into macrophages for 3 days in 60 ng/mL PMA ([…]) at 37° C. in 5% CO2 prior to the addition of the compound of interest. The cells were pretreated for 1 h with the test compound prior to stimulation with 1 ug/mL lipopolysaccharide from Escherichia coli. The cells were incubated at 37° C. for 3 h before the cells were harvested. At time of harvest, the spent media was removed from the cells and the cells were rinsed in […] PBS. Cell lysis solution (70 μL) was added the cells in each well and incubated for 5-10 min at room temperature, to allow for complete cell lysis and detachment. mRNA was then prepared using the “mRNA Catcher PLUS plate” (Invitrogen), according to the protocol supplied. After the last wash, as much wash buffer as possible was aspirated without allowing the wells to dry. Elution buffer (E3, 70 μL) was then added to each well. mRNA was then eluted by incubating the mRNA Catcher PLUS plate with Elution Buffer for 5 min at 68° C. and then immediately placing the plate on ice.
The eluted mRNA isolated was then used in a one-step quantitative real-time PCR reaction, using components of the Ultra Sense Kit together with Applied Biosystems primer-probe mixes. Real-time PCR data was analyzed, normalizing the Ct values for hIL-6 to an internal control, prior to determining the fold induction of each unknown sample, relative to the control.

[3] = target: T2, second bromodomain of Brd2 (BRD2(2)) (Homo sapiens, UniProt P25440); test: Inhibition of tetra-acetylated histone H4 binding to Brd2 bromodomain 2 (TR-FRET); conditions: tetra-acetylated histone H4 peptide, active = IC50 <30 μM
T2 construct: made in house; host or cells: E. coli BL21 (DE3)
T2 sequence (P25440 344-453 limits assumed): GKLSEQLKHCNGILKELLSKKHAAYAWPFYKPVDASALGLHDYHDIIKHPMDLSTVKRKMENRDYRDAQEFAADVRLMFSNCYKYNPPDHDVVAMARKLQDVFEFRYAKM
How it was run: as §1

Row | FRET activity (IC50 <30 μM) BRD4(1) [1] | c-myc activity (IC50 <30 μM) (c-myc) | Cell Proliferation activity (IC50 <30 μM) [2] | IL-6 activity (IC50 <30 μM) (hIL-6 mRNA) | FRET activity (IC50 <30 μM) BRD2(2) [3] | Structure (SMILES)
1 | Active | Active | Active |  |  | Cc1noc(C)c1-c1cc(N)c(=O)n(Cc2ccc(C#N)c(F)c2)c1 [Example 262, 4-((3-amino-5-(3,5-dimethylisoxazol-4-yl)-2-oxopyridin-1(2H)-yl)methyl)-2-fluorobenzonitrile]
2 | Active | Active | Active | Active |  | Cc1noc(C)c1-c1cc(N)c(=O)n(Cc2cccc3ncccc23)c1 [Example 274, 3-amino-5-(3,5-dimethylisoxazol-4-yl)-1-(quinolin-5-ylmethyl)pyridin-2(1H)-one]
3 | Active | Active | Active | Active |  | Cc1cc(Cn2cc(-c3c(C)noc3C)cc(N)c2=O)on1 [Example 240, 3-amino-5-(3,5-dimethylisoxazol-4-yl)-1-((3-methylisoxazol-5-yl)methyl)pyridin-2(1H)-one]
4 | Active | Active |  | Active | Active | Cc1ccccc1Cn1cc(-c2c(C)noc2C)ccc1=O [Example 121, 5-(3,5-Dimethylisoxazol-4-yl)-1-(2-methylbenzyl)pyridin-2(1H)-one]
5 | Active | Active | Active | Active |  | Cc1noc(C)c1-c1cc(N)c(=O)n(Cc2cncc(Cl)c2)c1 [Example 252, 3-amino-1-((5-chloropyridin-3-yl)methyl)-5-(3,5-dimethylisoxazol-4-yl)pyridin-2(1H)-one]
6 | Active |  | Active | Active |  | Cc1noc(C)c1-c1cc(N)c(=O)n(Cc2ccccc2)n1 [Example 250, 4-amino-2-benzyl-6-(3,5-dimethylisoxazol-4-yl)pyridazin-3(2H)-one]
7 | Active | Active | Active | Active |  | Cc1noc(C)c1-c1cc(N)c(=O)n(Cc2ccc(N3CCC3)cc2)c1 [Example 237, 3-Amino-1-(4-(azetidin-1-yl)benzyl)-5-(3,5-dimethylisoxazol-4-yl)pyridin-2(1H)-one]
8 | Active | Active | Active |  |  | Cc1noc(C)c1-c1cc(N)c(=O)n(Cc2ccc(C#N)cc2F)c1 [Example 261, 4-((3-amino-5-(3,5-dimethylisoxazol-4-yl)-2-oxopyridin-1(2H)-yl)methyl)-3-fluorobenzonitrile]
9 | Active | Active | Active |  |  | Cc1noc(C)c1-c1cc(N)c(=O)n(Cc2ccc(Cl)cn2)c1 [Example 255, 3-amino-1-((5-chloropyridin-2-yl)methyl)-5-(3,5-dimethylisoxazol-4-yl)pyridin-2(1H)-one]
10 | Active | Active |  |  | Active | CC(=O)Nc1cc(-c2c(C)noc2C)cn(Cc2ccccc2)c1=O [Example 71, N-(1-Benzyl-5-(3,5-dimethylisoxazol-4-yl)-2-oxo-1,2-dihydropyridin-3-yl)acetamide]

Continued, compound first:

Row | Structure (SMILES) | FRET activity (IC50 <30 μM) BRD4(1) [1] | c-myc activity (IC50 <30 μM) (c-myc) | Cell Proliferation activity (IC50 <30 μM) [2] | IL-6 activity (IC50 <30 μM) (hIL-6 mRNA) | FRET activity (IC50 <30 μM) BRD2(2) [3]
11 | Cc1noc(C)c1-c1cc(C)c(=O)n(Cc2ccncc2)n1 [Example 87, 6-(3,5-Dimethylisoxazol-4-yl)-4-methyl-2-(pyridin-4-ylmethyl)pyridazin-3(2H)-one] | Active |  | Not Active | Not Active | Active
12 | Cc1noc(C)c1-c1ccc(=O)n(Cc2c(F)cccc2F)n1 [Example 90, 2-(2,6-Difluorobenzyl)-6-(3,5-dimethylisoxazol-4-yl)pyridazin-3(2H)-one] | Active | Not Active | Not Active |  | Active
13 | Cc1noc(C)c1-c1ccc(=O)n(Cc2ccccc2C#N)c1 [Example 135, 2-((5-(3,5-Dimethylisoxazol-4-yl)-2-oxopyridin-1(2H)-yl)methyl)benzonitrile] | Active | Active |  |  | Active
14 | Cc1noc(C)c1-c1ccc(=O)n(Cc2ccccc2Cl)n1 [Example 26, 2-(2-Chlorobenzyl)-6-(3,5-dimethylisoxazol-4-yl)pyridazin-3(2H)-one] | Active |  | Active | Active | Active
15 | Cc1noc(C)c1-c1ccc(=O)n(Cc2ccsc2)c1 [Example 79, 5-(3,5-Dimethylisoxazol-4-yl)-1-(thiophen-3-ylmethyl)pyridin-2(1H)-one] | Active | Active |  | Active | Active
16 | Cc1noc(C)c1-c1ccc(=O)n(Cc2ccccn2)n1 [Example 2, 6-(3,5-Dimethylisoxazol-4-yl)-2-(pyridin-2-ylmethyl)pyridazin-3(2H)-one] | Active | Not Active | Not Active |  | Active
17 | Cc1noc(C)c1-c1ccc(=O)n(Cc2cccc(F)c2)n1 [Example 22, 6-(3,5-Dimethylisoxazol-4-yl)-2-(3-fluorobenzyl)pyridazin-3(2H)-one] | Active | Not Active | Not Active |  | Active

Source: patent US9271978B2 (Zenith Epigenetics Corp., priority 2012, dated 2016)
